Test results taken from patent US9187465B2, “Oxazole tyrosine kinase inhibitors” (Sareum Limited, priority 2007, dated 2015).
pIC50: −log10 of the molar value.

Tests used:
HCT116 cells = assay: Anti-proliferative activity, Alamar Blue assay, HCT116; format: cell-based; conditions: Homo sapiens, HCT-116, 72 hours, read-out: cell proliferation IC50
Procedure: (§1) The anti-proliferative activities of compounds of the invention are determined by measuring the ability of the compounds to inhibition of cell growth in a number of cell lines. Inhibition of cell growth is measured using the Alamar Blue assay (Nociari et al., Journal of Immunological Methods (1998) 213, 157-167). The method is based on the ability of viable cells to reduce resazurin to its fluorescent product resorufin. For each proliferation assay cells are plated onto 96 well plates and allowed to recover for 16 hours prior to the addition of inhibitor compounds for a further 72 hours. At the end of the incubation period 10% (v/v) Alamar Blue is added and incubated for a further 6 hours prior to determination of fluorescent product at Excitation 535 nm and Emission 590 nm. In the case of the non-proliferating cell assay cells are maintained at confluence for 96 hour prior to the addition of inhibitor compounds for a further 72 hours. The number of viable cells is determined by Alamar Blue assay as before. All cell lines are obtained from ECACC (European Collection of cell Cultures).

human FLT3 = molecular target: T1, human FLT3 (Homo sapiens, UniProt P36888); assay: FLT3 kinase assay (DELFIA enzyme inhibition); format: biochemical
T1 construct: a construct expressing the human FLT3 (564-993) with an amino terminal GST tag; host or cells: Sf9 insect cells (baculovirus)
T1 sequence (P36888 564-993): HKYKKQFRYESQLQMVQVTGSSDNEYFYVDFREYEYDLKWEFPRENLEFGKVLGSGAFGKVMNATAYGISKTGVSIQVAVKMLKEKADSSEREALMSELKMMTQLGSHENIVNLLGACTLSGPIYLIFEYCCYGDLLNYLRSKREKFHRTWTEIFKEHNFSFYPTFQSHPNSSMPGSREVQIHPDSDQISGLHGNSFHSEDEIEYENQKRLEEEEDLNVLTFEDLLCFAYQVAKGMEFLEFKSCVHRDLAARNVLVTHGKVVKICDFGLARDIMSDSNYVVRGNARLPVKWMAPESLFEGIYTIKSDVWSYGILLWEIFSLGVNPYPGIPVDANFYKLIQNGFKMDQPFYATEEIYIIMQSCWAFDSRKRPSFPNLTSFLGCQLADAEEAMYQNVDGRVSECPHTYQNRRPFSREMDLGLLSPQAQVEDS
Procedure, shortened: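 GST-tagged human FLT3 (564-993), expressed in sf9 cells, phosphorylated a biotinylated Gastrin Precursor (Tyr 87)-derived peptide for 30 min at room temperature before EDTA stop. The captured peptide was detected by Eu-labelled anti-phosphotyrosine DELFIA time-resolved fluorescence. IC50 was derived from % inhibition curves.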

human Aurora A = molecular target: T2, human Aurora A (Homo sapiens, UniProt O14965); assay: Aurora A kinase assay (DELFIA enzyme inhibition); format: biochemical; conditions: read-out: Aurora A IC50
T2 construct: Histidine tag (N); host or cells: Sf9 insect cells (baculovirus)
T2 sequence (O14965 1-403): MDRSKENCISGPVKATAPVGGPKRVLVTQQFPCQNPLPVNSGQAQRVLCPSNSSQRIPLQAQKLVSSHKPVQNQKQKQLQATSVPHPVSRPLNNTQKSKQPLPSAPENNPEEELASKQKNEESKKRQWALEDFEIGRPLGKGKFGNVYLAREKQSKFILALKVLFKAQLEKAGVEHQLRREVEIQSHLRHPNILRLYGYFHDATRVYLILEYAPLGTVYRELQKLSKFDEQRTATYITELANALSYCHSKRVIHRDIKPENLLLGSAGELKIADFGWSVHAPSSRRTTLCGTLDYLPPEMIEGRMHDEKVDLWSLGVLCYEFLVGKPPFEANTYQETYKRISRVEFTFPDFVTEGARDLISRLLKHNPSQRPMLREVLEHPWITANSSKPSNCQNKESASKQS
Procedure, shortened: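 DELFIA read-out (time-resolved Eu fluorescence, 620 nm emission) after Neutravidin capture of biotinylated peptide substrate and antibody detection. Reaction: Ni-agarose-purified Aurora A, 30 min at room temperature, stopped with 100 mM EDTA.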

human FLT4 = molecular target: T3, human FLT4 (Homo sapiens, UniProt P35916); assay: FLT4 kinase assay (DELFIA enzyme inhibition); format: biochemical; conditions: read-out: FLT4 IC50
T3 construct: a construct expressing the human FLT4 (789-1207) with an amino terminal GST tag; host or cells: Sf9 insect cells (baculovirus)
Procedure, shortened: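 GST-tagged human FLT4 (789-1207) from Sf9 cells phosphorylates a biotinylated MET (Tyr1253)-derived peptide for 30 min at room temperature, stopped with EDTA. Phosphopeptide is captured on Neutravidin and detected with Eu-labelled anti-phosphotyrosine antibody by time-resolved fluorescence; IC50 from % inhibition curves.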

[1] = test system: A549 human lung carcinoma cells; assay: Anti-proliferative activity, Alamar Blue assay, A549; format: cell-based; conditions: A549, 72 h, read-out: cell growth IC50
Procedure: as §1

T3 sequence (P35916 789-1207): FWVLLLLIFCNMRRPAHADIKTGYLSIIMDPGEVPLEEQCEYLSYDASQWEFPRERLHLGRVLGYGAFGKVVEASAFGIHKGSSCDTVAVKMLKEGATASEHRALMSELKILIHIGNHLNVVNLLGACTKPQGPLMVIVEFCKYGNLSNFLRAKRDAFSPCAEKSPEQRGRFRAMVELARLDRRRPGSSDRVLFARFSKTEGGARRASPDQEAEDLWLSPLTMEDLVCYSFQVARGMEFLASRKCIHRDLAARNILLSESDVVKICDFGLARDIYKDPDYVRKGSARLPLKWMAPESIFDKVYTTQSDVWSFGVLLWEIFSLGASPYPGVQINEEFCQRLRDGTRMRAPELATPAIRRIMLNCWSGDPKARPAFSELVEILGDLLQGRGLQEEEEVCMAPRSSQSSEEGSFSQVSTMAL

Compound | pIC50 (HCT116 cells) | pIC50 (human FLT3) | pIC50 (human Aurora A) | pIC50 (human FLT4) | pIC50 [1]
NC(=O)c1nc(-c2c(F)cccc2F)oc1-c1ccc(OCCN2CCOCC2)cc1 [Example F-13, 2-(2,6-difluorophenyl)-5-(4-(2-morpholinoethoxy)phenyl)oxazole-4-carboxamide] | > 5.00 | > 5.00 | > 5.00 | > 5.00 | –
CN1CCN(C(=O)c2ccc(Nc3oc(-c4c(F)cccc4Cl)nc3C(N)=O)cc2)CC1 [Example Q-57] | > 5.00 | > 5.00 | > 5.00 | > 5.00 | > 5.00
NC(=O)c1nc(-c2c(F)cccc2F)oc1-c1ccc(N2CCNCC2)cc1 [Example G-3, 2-(2,6-difluorophenyl)-5-(4-(piperazin-1-yl)phenyl)oxazole-4-carboxamide] | > 5.00 | > 5.00 | > 5.00 | > 5.00 | > 5.00
NC(=O)c1nc(-c2c(F)cccc2F)oc1Nc1ccc(S(=O)(=O)N2CCCCC2)cc1 [Example Q-28, 2-(2,6-difluorophenyl)-5-(4-(piperidin-1-ylsulfonyl)phenylamino)oxazole-4-carboxamide] | – | > 4.00 | > 4.00 | > 5.00 | > 5.00
CNC(=O)N1CCN(c2ccc(Nc3oc(-c4c(F)cccc4F)nc3C(N)=O)cc2)CC1 [Example J-3, 4-(4-(4-carbamoyl-2-(2,6-difluorophenyl)oxazol-5-ylamino)phenyl)-N-methylpiperazine-1-carboxamide] | > 5.00 | > 5.00 | > 5.00 | > 5.00 | –
CC(=O)N1CCN(c2ccc(Nc3oc(-c4c(F)cccc4F)nc3C(N)=O)cc2)CC1 [Example Q-9, 5-(4-(4-acetylpiperazin-1-yl)phenylamino)-2-(2,6-difluorophenyl)oxazole-4-carboxamide] | > 5.00 | > 5.00 | > 5.00 | > 5.00 | –
COc1ccccc1Nc1nc(C(N)=O)c(-c2ccc(N3CCNCC3)cc2)o1 [Example R-11, 2-(2-methoxyphenylamino)-5-(4-(piperazin-1-yl)phenyl)oxazole-4-carboxamide] | > 5.00 | > 5.00 | > 5.00 | > 5.00 | –
CN(C)S(=O)(=O)c1ccc(Nc2oc(-c3c(F)cccc3F)nc2C(N)=O)cc1 [Example Q-26, 2-(2,6-difluorophenyl)-5-(4-(N′,N′-dimethylsulfonamide)phenylamino)oxazole-4-carboxamide] | – | > 5.00 | > 5.00 | > 5.00 | > 5.00
NC(=O)c1nc(-c2c(F)cccc2F)oc1Nc1ccc(OCCN2CCOCC2)cc1 [Example Q-8, 2-(2,6-difluorophenyl)-5-(4-(2-morpholinoethoxy)phenylamino)oxazole-4-carboxamide] | > 5.00 | > 5.00 | > 5.00 | > 5.00 | –
CN1CCN(c2ccc(Nc3oc(-c4c(F)cccc4F)nc3C(N)=O)cc2)CC1 [Example Q-7, 2-(2,6-difluorophenyl)-5-(4-(4-methylpiperazin-1-yl)phenylamino)oxazole-4-carboxamide] | > 5.00 | > 5.00 | > 5.00 | > 5.00 | –
Cc1cccc(C)c1-c1nc(C(N)=O)c(Nc2ccc(N3CCNCC3)cc2)o1 [Example Q-37, 2-(2,6-dimethylphenyl)-5-(4-(piperazin-1-yl)phenylamino)oxazole-4-carboxamide] | – | > 5.00 | > 5.00 | > 5.00 | –
NC(=O)c1nc(-c2c(F)cccc2Cl)oc1-c1ccc(OCCN2CCCCC2)cc1 [Example F-24, 2-(2-chloro-6-fluorophenyl)-5-(4-(2-(piperidin-1-yl)ethoxy)phenyl)oxazole-4-carboxamide] | – | > 5.00 | > 5.00 | > 5.00 | –
CNC(=O)N1CCN(c2ccc(-c3oc(-c4c(F)cccc4F)nc3C(N)=O)cc2)CC1 [Example J-1, 4-(4-(4-carbamoyl-2-(2,6-difluorophenyl)oxazol-5-yl)phenyl)-N-methylpiperazine-1-carboxamide] | – | > 5.00 | > 5.00 | > 5.00 | –
NC(=O)c1nc(-c2c(F)cccc2F)oc1Nc1ccc(C(=O)N2CCNCC2)cc1 [Example Q-22, 2-(2,6-difluorophenyl)-5-(4-(piperazine-1-carbonyl)phenylamino)oxazole-4-carboxamide] | – | > 5.00 | > 5.00 | > 5.00 | –
NC(=O)c1nc(-c2c(F)cccc2F)oc1Nc1ccc(C(=O)N2CCC[C@@H]2CO)cc1 [Example U-12, (R)-2-(2,6-difluorophenyl)-5-(4-(2-(hydroxymethyl)pyrrolidine-1-carbonyl)phenylamino)oxazole-4-carboxamide] | – | > 5.00 | > 5.00 | > 5.00 | –
CN(C)C(=O)c1ccc(Nc2oc(-c3c(F)cccc3F)nc2C(N)=O)cc1 [Example Q-20, 2-(2,6-difluorophenyl)-5-(4-(dimethylcarbamoyl)phenylamino)oxazole-4-carboxamide] | – | > 5.00 | > 5.00 | > 5.00 | –
NC(=O)c1nc(-c2c(F)cccc2F)oc1Nc1ccc(N2CCNCC2)nc1 [Example Q-47, 2-(2,6-difluorophenyl)-5-(6-(piperazin-1-yl)pyridin-3-ylamino)oxazole-4-carboxamide] | – | > 5.00 | > 5.00 | > 5.00 | –
NC(=O)c1nc(Nc2ccc3cn[nH]c3c2)oc1-c1ccc(N2CCNCC2)cc1 [Example R-16, 2-(1H-indazol-6-ylamino)-5-(4-(piperazin-1-yl)phenyl)oxazole-4-carboxamide] | – | > 5.00 | > 5.00 | > 5.00 | –
NC(=O)c1nc(-c2c(Cl)cccc2Cl)oc1-c1ccc(OCCN2CCCCC2)cc1 [Example F-25, 2-(2,6-dichlorophenyl)-5-(4-(2-(piperidin-1-yl)ethoxy)phenyl)oxazole-4-carboxamide] | – | > 5.00 | > 5.00 | > 5.00 | –
CC(C)(C)OC(=O)N1CCC(NC(=O)c2ccc(Nc3oc(-c4c(F)cccc4F)nc3C(N)=O)cc2)CC1 [Example U-20, tert-butyl 4-(4-(4-carbamoyl-2-(2,6-difluorophenyl)oxazol-5-ylamino)benzamido) piperidine-1-carboxylate] | – | > 5.00 | > 4.00 | > 5.00 | –
NC(=O)c1nc(-c2c(F)cccc2F)oc1Nc1ccc(N2CCNC(=O)C2)cc1 [Example Q-19, 2-(2,6-difluorophenyl)-5-(4-(3-oxopiperazin-1-yl)phenylamino)oxazole-4-carboxamide] | – | > 5.00 | > 5.00 | > 5.00 | –
NC(=O)c1nc(-c2c(F)cccc2F)oc1Nc1ccc(-c2nnn[nH]2)cc1 [Example Q-34, 5-(4-(1H-tetrazol-5-yl)phenylamino)-2-(2,6-difluorophenyl)oxazole-4-carboxamide] | – | > 5.00 | > 5.00 | > 5.00 | –
NC(=O)c1nc(Nc2ccc3[nH]ncc3c2)oc1-c1ccc(N2CCNCC2)cc1 [Example R-15, 2-(1H-indazol-5-ylamino)-5-(4-(piperazin-1-yl)phenyl)oxazole-4-carboxamide] | – | > 5.00 | > 5.00 | > 5.00 | –
